According to patent US4444981A, “10 Oxo-4,5-dihydro-10H-benzo 5,6 cycloheph[1,2-B]pyrryls” (Beecham Group Limited, priority 1979, dated 1984):

Tests used:
[1] = phenyl quinone writhing test (analgesic activity); type: in vivo
From the text: The compounds were also examined for Analgesic Activity in the conventional phenyl quinone writhing test.

[2] = Carrageenin test (anti-inflammatory activity); type: in vivo; conditions: * significantly active
From the text: (§1) The compounds were examined for Anti-Inflammatory Activity in two conventional tests, the Cotton Pellet Granuloma test and the Carrageenin test.

[3] = Cotton Pellet Granuloma test (anti-inflammatory activity); type: in vivo; conditions: * significantly active
From the text: as §1

For `Cc1ccc2c(c1)CCc1cc(CC(=O)O)n(C)c1C2=O` [Example 1, 4,5-Dihydro-1,7-dimethyl-10H-10-oxo-benzo[5,6]cyclohepta[1,2-b]pyrrole-2-acetic acid], the TD50 (in vivo) was 95 mg/kg, the ED50 [1] was 5.1 mg/kg and the “Carrageenin % Inhibition” value ([2]; 5 mg/kg) was 21%. For the same compound, the “Carrageenin % Inhibition” value ([2]; 25 mg/kg) was 44% and the “Cotton Pellet % Inhibition” value ([3]; 25 mg/kg) was 34%.

For `Cn1c(CC(=O)O)cc2c1C(=O)c1ccccc1CC2` [Example 2, 4,5-Dihydro-10H-1-methyl-10-oxobenzo[5,6]-cyclohepta[1,2-b]pyrrole-2-aceticacid], the ED50 [1] was 2.4 mg/kg, the “Carrageenin % Inhibition” value ([2]; 15 mg/kg) was 25% and the “Carrageenin % Inhibition” value ([2]; 45 mg/kg) was 30%. The “Cotton Pellet % Inhibition” value ([3]; 10 mg/kg) was 28%.

With `CC(=O)CCc1cc2c(n1C)C(=O)c1ccccc1CC2` [Example 4, 4-(4,5-Dihydro-10H-1-methyl-10-oxo-benzo[5,6]cyclohepta[1,2-b]-2-pyrryl)butan-2-one] the “Carrageenin % Inhibition” value ([2]; 15 mg/kg) was 17% and the “Carrageenin % Inhibition” value ([2]; 45 mg/kg) was 20%.

With `CC(O)CCc1cc2c(n1C)C(=O)c1ccccc1CC2` (centres unmarked) [Example 5, 4-(4,5-Dihydro-10H-1-methyl-10-oxo-benzo[5,6]cyclohepta[1,2-b]-2-pyrryl)butan-2-ol] the “Carrageenin % Inhibition” value ([2]; 45 mg/kg) was 25%.

For `CC(=O)OC(C)CCc1cc2c(n1C)C(=O)c1ccccc1CC2` (centres unmarked) [Example 6, 2-Acetoxy-4-(4,5-dihydro-10H-1-methyl-10-oxo-benzo[5,6]cyclohept[1,2-b]-2-pyrryl)butane], the “Carrageenin % Inhibition” value ([2]; 15 mg/kg) was 17% and the “Carrageenin % Inhibition” value ([2]; 45 mg/kg) was 19%.

For `Cn1c(CC(=O)O)cc2c1C(=O)c1ccc(Cl)cc1CC2` [Example 7, 7-Chloro-4,5-dihydro-10H-1-methyl-10-oxobenzo[5,6]cyclohepta[1,2-b]pyrrole-2-acetic acid], the “Carrageenin % Inhibition” value ([2]; 25 mg/kg) was 25% and the “Cotton Pellet % Inhibition” value ([3]; 25 mg/kg) was 49%.

In the case of `Cn1c(CC(=O)O)cc2c1C(=O)c1ccc(F)cc1CC2` [Example 8, 4,5-Dihydro-7-fluoro-10H-1-methyl-10-oxobenzo[5,6]cyclohepta[1,2-b]pyrrole-2-acetic acid], the “Cotton Pellet % Inhibition” value ([3]; 10 mg/kg) is reported as 31%.
